From PubChem BioAssay AID248 (DTP/NCI, 2004)
“And” between values parts separate entries of the source, which are not always exact repeats. Equal entries are not always repeated. Toxic doses and inconclusive results are not listed. Rule as the data show it: active = T/C of 150% or more; inactive = T/C below 125%.

Tested on: L1210 leukemia ip in BDF1 mice, survival T/C
Assay: NCI In Vivo Anticancer Drug Screen. Data for tumor model L1210 Leukemia (intraperitoneal) in B6D2F1 (BDF1) mice
Settings: endpoint: mean survival time, higher = longer survival
Summary of the method: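 Tumor was transplanted into mice, which were then dosed with test compound or vehicle alone. Survival was recorded for each group, and the treated figure was expressed relative to the control figure.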

[1] = dose: 100.0 mg/kg/injection, schedule: Q01DX009 (ip), vehicle: Klucel (hydroxypropylcellulose) (HPC)
[2] = dose: 100.0 mg/kg/injection, schedule: Q04DX003 (ip), vehicle: Klucel (hydroxypropylcellulose) (HPC)
[3] = dose: 200.0 mg/kg/injection, schedule: Q01DX009 (ip), vehicle: Klucel (hydroxypropylcellulose) (HPC)
[4] = dose: 200.0 mg/kg/injection, schedule: Q04DX003 (ip), vehicle: Klucel (hydroxypropylcellulose) (HPC)
[5] = dose: 400.0 mg/kg/injection, schedule: Q01DX009 (ip), vehicle: Klucel (hydroxypropylcellulose) (HPC)
[6] = dose: 400.0 mg/kg/injection, schedule: Q04DX003 (ip), vehicle: Klucel (hydroxypropylcellulose) (HPC)
[7] = dose: 6.25 mg/kg/injection, schedule: Q01DX009 (ip), vehicle: saline
[8] = dose: 12.5 mg/kg/injection, schedule: Q01DX009 (ip), vehicle: saline
[9] = dose: 12.5 mg/kg/injection, schedule: Q04DX003 (ip), vehicle: saline
[10] = dose: 100.0 mg/kg/injection, schedule: Q01DX001 (ip), vehicle: saline
[11] = dose: 200.0 mg/kg/injection, schedule: Q01DX001 (ip), vehicle: saline
[12] = dose: 400.0 mg/kg/injection, schedule: Q01DX001 (ip), vehicle: saline
[13] = dose: 100.0 mg/kg/injection, schedule: Q04DX002 (ip), vehicle: Klucel (hydroxypropylcellulose) (HPC)
[14] = dose: 200.0 mg/kg/injection, schedule: Q04DX002 (ip), vehicle: Klucel (hydroxypropylcellulose) (HPC)
[15] = dose: 100.0 mg/kg/injection, schedule: Q01DX001 (ip), vehicle: Klucel (hydroxypropylcellulose) (HPC)
[16] = dose: 200.0 mg/kg/injection, schedule: Q01DX001 (ip), vehicle: Klucel (hydroxypropylcellulose) (HPC)
[17] = dose: 400.0 mg/kg/injection, schedule: Q01DX001 (ip), vehicle: Klucel (hydroxypropylcellulose) (HPC)
[18] = dose: 50.0 mg/kg/injection, schedule: Q01DX009 (ip), vehicle: saline
[19] = dose: 100.0 mg/kg/injection, schedule: Q01DX009 (ip), vehicle: saline
[20] = dose: 200.0 mg/kg/injection, schedule: Q01DX009 (ip), vehicle: saline

Measured: T/C

COc1ccc(-c2ccc(CCNC(C)=O)cc2)cc1Cl
inactive: dose: 100.0 mg/kg/injection, schedule: Q01DX001 (ip), vehicle: carboxymethylcellulose (CMC) 94 % of control | dose: 200.0 mg/kg/injection, schedule: Q01DX001 (ip), vehicle: carboxymethylcellulose (CMC) 86 % of control | dose: 400.0 mg/kg/injection, schedule: Q01DX001 (ip), vehicle: carboxymethylcellulose (CMC) 89 % of control

Cc1ccn(C(N)=O)n1
inactive: [1] 107 % of control | [2] 98 % of control | [3] 102 % of control | [4] 96 % of control | [5] 115 % of control | [6] 100 % of control

C[n+]1ccc(C#N)c2ccccc21
inactive: dose: 1.56 mg/kg/injection, schedule: Q01DX009 (ip), vehicle: saline 96 % of control | dose: 3.12 mg/kg/injection, schedule: Q01DX009 (ip), vehicle: saline 98 % of control | [7] 106 % of control | [8] 98 % of control | [9] 101 % of control

O=[N+]([O-])c1ccccc1N=Nc1c(O)[nH]c2c(Cl)cccc12
inactive: [10] 97 % of control | [11] 100 % of control | [12] 97 % of control

CCC1CC(O)c2c(O)c3c(c(O)c2C1O)C(=O)c1cccc(O)c1C3=O (centres undefined) (tested in a mixture with another compound)
inactive: dose: 0.25 mg/kg/injection, schedule: Q01DX015 (ip), vehicle: carboxymethylcellulose (CMC) 101 % of control | dose: 0.5 mg/kg/injection, schedule: Q01DX015 (ip), vehicle: carboxymethylcellulose (CMC) 101 % of control | dose: 3.12 mg/kg/injection, schedule: Q01DX001 (ip), vehicle: carboxymethylcellulose (CMC) 93 % of control

N#CC1(c2ccccc2)OC1(c1ccccc1)c1ccccc1 (centres undefined)
inactive: [1] 89 % of control | [13] 88 % of control | [3] 91 % of control | [14] 92 % of control | [5] 88 % of control

CCc1cccc(CC)c1N1C(=O)C2C(C1=O)C1(Cl)C(Cl)=C(Cl)C2(Cl)C1(Cl)Cl (centres undefined)
inactive: dose: 25.0 mg/kg/injection, schedule: Q01DX009 (ip), vehicle: Klucel (hydroxypropylcellulose) (HPC) 98 % of control | dose: 25.0 mg/kg/injection, schedule: Q04DX003 (ip), vehicle: Klucel (hydroxypropylcellulose) (HPC) 91 % of control | dose: 50.0 mg/kg/injection, schedule: Q01DX009 (ip), vehicle: Klucel (hydroxypropylcellulose) (HPC) 102 % of control | dose: 50.0 mg/kg/injection, schedule: Q04DX003 (ip), vehicle: Klucel (hydroxypropylcellulose) (HPC) 93 % of control | [1] 105 % of control | [2] 106 % of control and 88 % of control

CC(C)(C)N(O)C(=O)NC1CCCCC1
inactive: [15] 92 % of control | [16] 91 % of control | [17] 103 % of control

c1ccc(-c2nc3ccccc3nc2-c2ccccc2)cc1
inactive: [2] 96 % of control | dose: 100.0 mg/kg/injection, schedule: Q04DX003 (ip), vehicle: saline with Tween-80 100 % of control | [4] 86 % of control | dose: 200.0 mg/kg/injection, schedule: Q04DX003 (ip), vehicle: saline with Tween-80 100 % of control | [6] 90 % of control | dose: 400.0 mg/kg/injection, schedule: Q04DX003 (ip), vehicle: saline with Tween-80 100 % of control

Cc1c(Cl)cccc1NC(=O)Nc1ccccc1F
inactive: [1] 91 % of control | [13] 97 % of control | [3] 106 % of control | [14] 97 % of control | [5] 96 % of control | dose: 400.0 mg/kg/injection, schedule: Q04DX002 (ip), vehicle: Klucel (hydroxypropylcellulose) (HPC) 94 % of control

C[N+](C)(C)C.Cl[Br-]Br
inactive: dose: 6.25 mg/kg/injection, schedule: Q01DX009 (ip), vehicle: alcohol 95 % of control | dose: 12.5 mg/kg/injection, schedule: Q01DX009 (ip), vehicle: alcohol 89 % of control

CCCCN1C(=O)N(CCCC)C(=O)C(Br)(Br)C1=O
inactive: dose: 50.0 mg/kg/injection, schedule: Q01DX009 (ip), vehicle: saline with Tween-80 97 % of control | dose: 100.0 mg/kg/injection, schedule: Q01DX009 (ip), vehicle: saline with Tween-80 105 % of control | dose: 200.0 mg/kg/injection, schedule: Q01DX009 (ip), vehicle: saline with Tween-80 97 % of control

O=C(/C=N/O)/C=N/O (tested in a mixture with another compound)
inactive: [7] 97 % of control | [8] 96 % of control | [9] 96 % of control | dose: 25.0 mg/kg/injection, schedule: Q01DX009 (ip), vehicle: saline 96 % of control | dose: 25.0 mg/kg/injection, schedule: Q04DX003 (ip), vehicle: saline 104 % of control

O=C(Nc1c[nH]c(=O)[nH]c1=O)C(F)(F)F
inactive: [18] 100 % of control | dose: 50.0 mg/kg/injection, schedule: Q04DX003 (ip), vehicle: saline 103 % of control | [19] 96 % of control | dose: 100.0 mg/kg/injection, schedule: Q04DX003 (ip), vehicle: saline 104 % of control | [20] 92 % of control | dose: 200.0 mg/kg/injection, schedule: Q04DX003 (ip), vehicle: saline 108 % of control

O=[N+]([O-])c1cccc(S(=O)(=O)NNc2cc(C(F)(F)F)ccc2Cl)c1
inactive: [15] 93 % of control | [2] 92 % of control | [16] 94 % of control | [4] 87 % of control | [17] 98 % of control | [6] 100 % of control

COc1ccc2c(c1)CN(S(=O)(=O)c1ccc(C)cc1)CC/C2=N\O
inactive: [19] 94 % of control | [20] 94 % of control | dose: 400.0 mg/kg/injection, schedule: Q01DX009 (ip), vehicle: saline 104 % of control

CCCCC(CC)COC(=O)CC(CC(=O)OCC(CC)CCCC)C(=O)OCC(CC)CCCC (centres undefined)
inactive: [18] 111 % of control | [19] 97 % of control | [20] 92 % of control

CCCCOP(=O)(Cc1ccccc1)Oc1ccccc1 (centres undefined)
inactive: [1] 95 % of control | [3] 97 % of control | [5] 105 % of control

CC1CC(=O)Oc2ccc(C(C)(C)C)cc21 (centres undefined)
inactive: dose: 100.0 mg/kg/injection, schedule: Q01DX001 (ip), vehicle: saline with Tween-80 95 % of control | dose: 200.0 mg/kg/injection, schedule: Q01DX001 (ip), vehicle: saline with Tween-80 91 % of control | dose: 400.0 mg/kg/injection, schedule: Q01DX001 (ip), vehicle: saline with Tween-80 95 % of control

CCC(=O)c1ccc(NC(C)=O)cc1
inactive: [1] 100 % of control | [2] 99 % of control | [3] 100 % of control | [4] 96 % of control | [5] 103 % of control | [6] 96 % of control

O=C1CC(CC(=O)C2CCCC2=O)CC(=O)N1 (centres undefined)
inactive: [10] 101 % of control | [11] 100 % of control | [12] 108 % of control

Cc1cc(C)c(C)c(OC(=O)Nc2cc(Cl)ccc2C)c1
inactive: [1] 94 % of control | [3] 94 % of control | [5] 95 % of control

CCOc1ccc2c(ccc(C)[n+]2C)c1
inactive: dose: 75.0 mg/kg/injection, schedule: Q01DX001 (ip), vehicle: carboxymethylcellulose (CMC) 108 % of control | dose: 150.0 mg/kg/injection, schedule: Q01DX001 (ip), vehicle: carboxymethylcellulose (CMC) 109 % of control
